Experimental data published in ChEMBL document CHEMBL3421558, “Structure activity relationship of substituted 1,5-naphthyridine analogs of oxabicyclooctane-linked novel bacterial topoisomerase inhibitors as broad-spectrum antibacterial agents (Part-4)” (Bioorg Med Chem Lett, 2015).
pIC50: −log10 of the molar value. Values after ≈ are worked out from the molar mass of the structure shown.

Experiments:
Enterococcus faecium = assay: Antimicrobial activity against VanA expressing vancomycin-resistant Enterococcus faecium by micro broth dilution or agar based method; type: functional; conditions: Enterococcus faecium; read-out: MIC
Staphylococcus aureus [1] = assay: Antimicrobial activity against Staphylococcus aureus Smith by micro broth dilution or agar based method; type: functional
Staphylococcus aureus [2] = assay: Antimicrobial activity against methicillin-resistant Staphylococcus aureus OIT971 by micro broth dilution or agar based method; type: functional
Escherichia coli = assay: Antimicrobial activity against Escherichia coli ATCC 25922 by micro broth dilution or agar based method; type: functional; conditions: Escherichia coli, ATCC 25922; read-out: MIC
Streptococcus pneumoniae = assay: Antimicrobial activity against Streptococcus pneumoniae IID553 by micro broth dilution or agar based method; type: functional; conditions: Streptococcus pneumoniae, IID553; read-out: MIC
Acinetobacter baumannii = assay: Antimicrobial activity against Acinetobacter baumannii IID876 by micro broth dilution or agar based method; type: functional; conditions: Acinetobacter baumannii, IID876; read-out: MIC
Pseudomonas aeruginosa = assay: Antimicrobial activity against Pseudomonas aeruginosa PAO1 by micro broth dilution or agar based method; type: functional; conditions: Pseudomonas aeruginosa, PAO1; read-out: MIC
Staphylococcus aureus [3] = assay: Potency index, ratio of MIC for quinolone-resistant Staphylococcus aureus MS5935 to MIC for quinolone-[…]; type: functional
[4] = biological target: Voltage-gated inwardly rectifying potassium channel KCNH2 (Homo sapiens, UniProt Q12809); assay: Inhibition of MK499 binding to human ERG
Staphylococcus aureus [5] = assay: Antimicrobial activity against Staphylococcus aureus in iv dosed mouse bacteremia survival model; type: functional
Staphylococcus aureus [6] = assay: Antimicrobial activity against Staphylococcus aureus in orally dosed mouse bacteremia survival model; type: functional; conditions: po
Staphylococcus aureus [7] = assay: Antimicrobial activity against quinolone-resistant Staphylococcus aureus MS5935 by micro broth dilution or agar based method; type: functional
Staphylococcus aureus [8] = assay: Antimicrobial activity against quinolone-sensitive Staphylococcus aureus MS5935 by micro broth dilution or agar based method
[9] = Staphylococcus aureus, Smith, read-out: MIC

Chain of Voltage-gated inwardly rectifying potassium channel KCNH2 (Q12809 whole entry): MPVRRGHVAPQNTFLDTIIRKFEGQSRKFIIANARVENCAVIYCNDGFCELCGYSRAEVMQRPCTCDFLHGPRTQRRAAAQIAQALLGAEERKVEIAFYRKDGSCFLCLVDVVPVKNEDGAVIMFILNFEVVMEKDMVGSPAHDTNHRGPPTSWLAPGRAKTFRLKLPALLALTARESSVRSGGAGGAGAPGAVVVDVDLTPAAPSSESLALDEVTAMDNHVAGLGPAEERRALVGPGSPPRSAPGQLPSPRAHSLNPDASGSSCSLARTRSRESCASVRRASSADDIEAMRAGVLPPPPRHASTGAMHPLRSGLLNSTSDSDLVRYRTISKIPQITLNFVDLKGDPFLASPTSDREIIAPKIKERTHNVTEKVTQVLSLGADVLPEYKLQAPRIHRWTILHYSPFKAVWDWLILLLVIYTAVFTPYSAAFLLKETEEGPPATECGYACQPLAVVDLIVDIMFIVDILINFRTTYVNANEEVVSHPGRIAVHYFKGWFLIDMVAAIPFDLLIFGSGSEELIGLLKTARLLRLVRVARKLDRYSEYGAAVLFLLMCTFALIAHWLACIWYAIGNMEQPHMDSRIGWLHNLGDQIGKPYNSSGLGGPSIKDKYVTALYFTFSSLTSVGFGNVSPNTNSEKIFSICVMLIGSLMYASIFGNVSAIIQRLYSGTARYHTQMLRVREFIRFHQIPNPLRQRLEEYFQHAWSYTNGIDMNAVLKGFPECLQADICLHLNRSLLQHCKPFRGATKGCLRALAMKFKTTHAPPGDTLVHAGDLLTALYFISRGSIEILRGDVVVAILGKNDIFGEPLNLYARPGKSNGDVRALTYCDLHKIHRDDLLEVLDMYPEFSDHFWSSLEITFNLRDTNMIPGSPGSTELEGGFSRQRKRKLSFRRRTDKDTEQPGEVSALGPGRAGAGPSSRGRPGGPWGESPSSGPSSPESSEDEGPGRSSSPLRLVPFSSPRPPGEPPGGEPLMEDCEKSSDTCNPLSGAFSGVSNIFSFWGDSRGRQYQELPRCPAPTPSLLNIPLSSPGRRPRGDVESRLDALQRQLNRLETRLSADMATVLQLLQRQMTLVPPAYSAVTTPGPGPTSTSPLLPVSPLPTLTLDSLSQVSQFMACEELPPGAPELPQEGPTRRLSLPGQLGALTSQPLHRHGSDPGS

Row | SMILES | MIC (Enterococcus faecium) [µg/mL] | MIC (Staphylococcus aureus [1]; [9]) [µg/mL] | MIC (Staphylococcus aureus [2]) [µg/mL] | MIC (Escherichia coli) [µg/mL] | MIC (Streptococcus pneumoniae) [µg/mL] | MIC (Acinetobacter baumannii) [µg/mL] | MIC (Pseudomonas aeruginosa) [µg/mL] | Ratio (Staphylococcus aureus [3]) | pIC50 [4] | ED50 (Staphylococcus aureus [5]) [mg/kg] | ED50 (Staphylococcus aureus [6]) [mg/kg] | MIC (Staphylococcus aureus [1]) [µg/mL] | MIC (Staphylococcus aureus [7]) [µg/mL] | MIC (Staphylococcus aureus [8]) [µg/mL]
1 | COc1nc2c(CCC34CCC(NCc5ccc6c(n5)NC(=O)CO6)(CC3)CO4)c(F)cnc2cc1F | 2 (≈ 3.91 µM) | 0.031 (≈ 0.0606 µM) | 0.016 (≈ 0.0313 µM) | 4 (≈ 7.82 µM) | 0.25 (≈ 0.489 µM) | 1 (≈ 1.95 µM) | 8 (≈ 15.6 µM) | – | – | – | – | – | – | –
2 | COc1cc(C)c2ncc(F)c(CCC34CCC(NCc5ccc6c(n5)NC(=O)CO6)(CC3)CO4)c2n1 | 2 (≈ 3.94 µM) | 0.016 (≈ 0.0315 µM) | 0.008 (≈ 0.0158 µM) | 4 (≈ 7.88 µM) | 0.25 (≈ 0.493 µM) | 2 (≈ 3.94 µM) | 16 (≈ 31.5 µM) | – | – | – | – | – | – | –
3 | CCOc1cc(C)c2ncc(F)c(CCC34CCC(NCc5ccc6c(n5)NC(=O)CO6)(CC3)CO4)c2n1 | 4 (≈ 7.67 µM) | 0.063 (≈ 0.121 µM) | 0.031 (≈ 0.0594 µM) | 8 (≈ 15.3 µM) | 1 (≈ 1.92 µM) | 4 (≈ 7.67 µM) | 32 (≈ 61.4 µM) | <4 | 5.92 | – | – | – | – | –
4 | COc1ccc2nc(N3CCNCC3)c(F)c(CCC34CCC(NCc5ccc6c(n5)NC(=O)CO6)(CC3)CO4)c2n1 | 8 (≈ 13.8 µM) | 8 (≈ 13.8 µM) | 8 (≈ 13.8 µM) | 8 (≈ 13.8 µM) | 8 (≈ 13.8 µM) | 8 (≈ 13.8 µM) | 8 (≈ 13.8 µM) | <4 | – | – | – | – | – | –
5 | COc1ccc2nc(N3CCN(C)CC3)c(F)c(CCC34CCC(NCc5ccc6c(n5)NC(=O)CO6)(CC3)CO4)c2n1 | 32 (≈ 54.1 µM) | 32 (≈ 54.1 µM) | 16 (≈ 27 µM) | 32 (≈ 54.1 µM) | 32 (≈ 54.1 µM) | 32 (≈ 54.1 µM) | 32 (≈ 54.1 µM) | <4 | – | – | – | – | – | –
6 | COc1nc2c(CCC34CCC(NCc5ccc6c(n5)NC(=O)CO6)(CC3)CO4)c(F)cnc2cc1C(F)(F)F | 8 (≈ 14.2 µM) | 8 (≈ 14.2 µM) | 8 (≈ 14.2 µM) | 8 (≈ 14.2 µM) | 8 (≈ 14.2 µM) | 8 (≈ 14.2 µM) | 8 (≈ 14.2 µM) | – | – | – | – | – | – | –
7 | Cc1cc(S(C)(=O)=O)nc2c(CCC34CCC(NCc5ccc6c(n5)NC(=O)CO6)(CC3)CO4)c(F)cnc12 | 4 (≈ 7.2 µM) | 0.125 (≈ 0.225 µM) | 0.125 (≈ 0.225 µM) | 8 (≈ 14.4 µM) | 4 (≈ 7.2 µM) | 2 (≈ 3.6 µM) | 32 (≈ 57.6 µM) | <4 | 4.91 | – | – | – | – | –
8 | CN(C)c1cnc2c(CCC34CCC(NCc5ccc6c(n5)NC(=O)CO6)(CC3)CO4)c(F)cnc2c1 | 16 (≈ 31.6 µM) | 16 (≈ 31.6 µM) | 16 (≈ 31.6 µM) | 16 (≈ 31.6 µM) | 16 (≈ 31.6 µM) | 16 (≈ 31.6 µM) | 16 (≈ 31.6 µM) | <4 | 4.74 | – | – | – | – | –
9 | Cc1cc(S(C)(=O)=O)nc2c(CCC34CCC(NCc5ccc6c(n5)NC(=O)CO6)(CC3)CO4)ccnc12 | 16 (≈ 29.8 µM) | 1 (≈ 1.86 µM) | 1 (≈ 1.86 µM) | 32 (≈ 59.5 µM) | 16 (≈ 29.8 µM) | 16 (≈ 29.8 µM) | 32 (≈ 59.5 µM) | <4 | 5.17 | – | – | – | – | –
10 | CCOC(=O)c1c(OC)cnc2c(CCC34CCC(NCc5ccc6c(n5)NC(=O)CO6)(CC3)CO4)ccnc12 | 16 (≈ 29.2 µM) | 16 (≈ 29.2 µM) | 16 (≈ 29.2 µM) | 16 (≈ 29.2 µM) | 16 (≈ 29.2 µM) | 16 (≈ 29.2 µM) | 16 (≈ 29.2 µM) | <4 | 5.10 | – | – | – | – | –
11 | COc1ccc2ncc(Cl)c(CCC34CCC(NCc5ccc6c(n5)NC(=O)CO6)(CC3)CO4)c2n1.Cl | – | – | – | – | – | – | – | – | – | 17 | > 50 | – | – | –
12 | COc1ccc2nccc(CCC34CCC(NCc5ccc6c(n5)NC(=O)CO6)(CC3)CO4)c2n1.Cl | – | – | – | – | – | – | – | – | – | 7.2 | > 50 | – | – | –
13 | COc1ccc2ncc(C#N)c(CCC34CCC(NCc5ccc6c(n5)NC(=O)CO6)(CC3)CO4)c2n1.Cl | – | – | – | – | – | – | – | – | – | 8.6 | 9.6 | – | – | –
14 | Cl.N#Cc1ccc2ncc(F)c(CCC34CCC(NCc5ccc6c(n5)NC(=O)CO6)(CC3)CO4)c2n1 | – | – | – | – | – | – | – | – | – | 20 | 17 | – | – | –
15 | COc1ccc2ncc(C#N)c(CC(O)C34CCC(NCc5ccc6c(n5)NC(=O)CO6)(CC3)CO4)c2n1.Cl (configuration not stated) | – | – | – | – | – | – | – | – | – | 5.1 | 6.7 | – | – | –
16 | COc1ccc2ncc(C#N)c(CC(O)C34CCC(NCc5ccc6c(n5)NC(=O)CO6)(CC3)CO4)c2n1 (stereo in doubt; 88) | 1 (≈ 1.94 µM) | – | 0.031 (≈ 0.06 µM) | 4 (≈ 7.74 µM) | 0.25 (≈ 0.484 µM) | 0.5 (≈ 0.968 µM) | 8 (≈ 15.5 µM) | – | – | – | – | 0.031 (≈ 0.06 µM) | – | –
17 | C[C@H]1COc2c(N3CCN(C)CC3)c(F)cc3c(=O)c(C(=O)O)cn1c23.C[C@H]1COc2c(N3CCN(C)CC3)c(F)cc3c(=O)c(C(=O)O)cn1c23.O [LEVOFLOXACIN] | – | – | – | – | – | – | – | >64 | – | – | – | – | > 16 | 0.25
